Measured values taken from patent publication US20260070945A1, “MACROCYCLIC IMMUNOMODULATORS” (Bristol-Myers Squibb Company, priority 2022, published 2026).
Where a SMILES comes first, the peptide text is derived from it. Bridges are numbered along the chain shown (N, C = ends). [ ]: non-standard residue; d: D form. The star is where a group is joined. ξ: configuration not given here. Phe(3-CF3) = N[C@@H](Cc1cccc(C(F)(F)F)c1)C(=O)O; Phe(4-COOH) = N[C@@H](Cc1ccc(C(=O)O)cc1)C(=O)O; Bip = N[C@@H](Cc1ccc(-c2ccccc2)cc1)C(=O)O; Phe(3-Cl) = N[C@@H](Cc1cccc(Cl)c1)C(=O)O; Morpholine(3S-CO) = O=C(O)[C@@H]1COCCN1; Phe(3-Me) = Cc1cccc(C[C@H](N)C(=O)O)c1; NH(CH2)12COOH = O=C(O)CCCCCCCCCCCCN*; Val(3-OH) = CC(C)(O)[C@H](N)C(=O)O; 4Pal = N[C@@H](Cc1ccncc1)C(=O)O; Cha = N[C@@H](CC1CCCCC1)C(=O)O; Cit = NC(=O)NCCC[C@H](N)C(=O)O; Thr(3ξ) = CC(O)[C@H](N)C(=O)O; Carboxymethyl = O=C(O)C*; NMeA = CN[C@@H](C)C(=O)O; Pra = C#CC[C@H](N)C(=O)O; Aun = NCCCCCCCCCCC(=O)O; Dab = NCC[C@H](N)C(=O)O; Dap = NC[C@H](N)C(=O)O; AEEA = NCCOCCOCC(=O)O

Target: T1, PD-1/PD-L1 interaction (PE-labeled human PD-L1-Ig binding to Jurkat cell line over-expressing human PD-1) (Homo sapiens, UniProt Q15116)
T1 construct: expressed in transfected cells; host or cells: Jurkat
T1 sequence (Q15116 25-288): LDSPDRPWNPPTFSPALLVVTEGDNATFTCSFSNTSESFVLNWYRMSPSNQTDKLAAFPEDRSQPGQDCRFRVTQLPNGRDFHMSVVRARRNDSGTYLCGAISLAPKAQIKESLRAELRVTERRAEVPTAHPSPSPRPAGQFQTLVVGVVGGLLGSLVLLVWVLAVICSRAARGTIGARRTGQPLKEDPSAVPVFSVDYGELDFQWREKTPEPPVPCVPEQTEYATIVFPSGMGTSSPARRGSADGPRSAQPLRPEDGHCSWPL
Test: Jurkat-PD-1 Cell Binding High-Content Screening Assay (CBA)
Details: Jurkat-hPD-1 cells, PE-labeled PD-L1-Ig 20 nM final; read-out: Jurkat HPD1 PDL1 IC50
How it was run: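 Compound is added first to the PD-1-expressing Jurkat cells and held 2 h at 37 °C in serum-containing DMEM. The fluorescent PD-L1 fusion follows at 20 nM final for 1 h. Fixed, Hoechst-stained cells are then imaged for bound label.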

SMILES	IC50
COC[C@@H]1NC(=O)CSC[C@@H](C(=O)N[C@@H](CCN)C(=O)NCCCCCCCCCCCCC(=O)O)NC(=O)[C@H](CC(=O)O)NC(=O)[C@H](C(C)(C)O)NC(=O)[C@H](CC2CCCCC2)NC(=O)[C@H](CCN)NC(=O)[C@@H](CC(C)C)NC(=O)[C@H](C)N(C)C(=O)[C@H](CCCNC(N)=O)NC(=O)[C@H](Cc2ccc(-c3ccccc3)cc2)NC(=O)[C@H](Cc2ccc(C(=O)O)cc2)NC(=O)[C@H](Cc2cccc(C(F)(F)F)c2)NC(=O)[C@H](CC(=O)O)NC(=O)[C@H](Cc2ccc(OCC(=O)O)cc2)NC1=O [Example 1138] ({CH2CO}-S(Me)Y(Carboxymethyl)D[Phe(3-CF3)][Phe(4-COOH)][Bip][Cit][NMeA][dL][Dab][Cha][Val(3-OH)]DC[Dab]-{NH(CH2)12COOH}; thioether N-14)	11.2 nM
CC(C)C[C@H]1NC(=O)[C@H](C)N(C)C(=O)[C@H](C(C)C)NC(=O)[C@H](Cc2ccc(-c3ccccc3)cc2)NC(=O)[C@H](C(C)C)NC(=O)[C@H](Cc2c[nH]c3ccccc23)NC(=O)[C@H](CC(=O)O)NC(=O)[C@H](Cc2ccc(OCC(=O)O)cc2)NC(=O)[C@H](CN)NC(=O)CSC[C@@H](C(=O)NCC(=O)NCCOCCOCC(=O)N[C@@H](CCCCN)C(=O)NCCCCCCCCCCC(=O)O)NC(=O)[C@H](CO)NC(=O)[C@H](C(C)C)NC(=O)[C@H](CC2CCCCC2)NC(=O)[C@H](CCN)NC1=O [Example 2085] ({CH2CO}-[Dap]Y(Carboxymethyl)DWV[Bip]V[NMeA][dL][Dab][Cha]VSCG[AEEA]K[Aun]-OH; thioether N-14)	9.8 nM
C#CC[C@H](NC(=O)[C@H](CCN)NC(=O)[C@@H]1CSCC(=O)N[C@@H]([C@@H](C)O)C(=O)N[C@@H](Cc2ccc(OCC(=O)O)cc2)C(=O)N[C@@H](CC(=O)O)C(=O)N[C@@H](Cc2cccc(Cl)c2)C(=O)N[C@@H](Cc2ccc(C(=O)O)cc2)C(=O)N[C@@H](Cc2ccc(-c3ccccc3)cc2)C(=O)N[C@@H](Cc2ccc(OCC(=O)O)cc2)C(=O)N(C)[C@@H](C)C(=O)N[C@H](CC(C)C)C(=O)N[C@@H](CCN)C(=O)N[C@@H](CC2CCCCC2)C(=O)N[C@@H](C(C)C)C(=O)N[C@@H]([C@@H](C)O)C(=O)N1)C(=O)NCCCCCCCCCCC(=O)O [Example 1239] ({CH2CO}-TY(Carboxymethyl)D[Phe(3-Cl)][Phe(4-COOH)][Bip]Y(Carboxymethyl)[NMeA][dL][Dab][Cha]VTC[Dab][Pra][Aun]-OH; thioether N-14)	10.5 nM
Cc1cccc(C[C@@H]2NC(=O)[C@H](CC(=O)O)NC(=O)[C@H](Cc3ccc(OCC(=O)O)cc3)NC(=O)[C@H](CCCNC(=N)N)NC(=O)CSC[C@@H](C(=O)N[C@@H](CCCCN)C(=O)NCCCCCCCCCCC(=O)O)NC(=O)[C@H]([C@@H](C)O)NC(=O)[C@H](C(C)C)NC(=O)[C@H](CC3CCCCC3)NC(=O)[C@H](CCN)NC(=O)[C@@H](CC(C)C)NC(=O)[C@H](C)N(C)C(=O)[C@H](Cc3ccc(OCC(=O)O)cc3)NC(=O)[C@H](Cc3ccc(-c4ccccc4)cc3)NC(=O)[C@H](CCCNC(N)=O)NC2=O)c1 [Example 1227] ({CH2CO}-RY(Carboxymethyl)D[Phe(3-Me)][Cit][Bip]Y(Carboxymethyl)[NMeA][dL][Dab][Cha]VTCK[Aun]-OH; thioether N-14)	33.9 nM
CC(C)C[C@@H]1NC(=O)[C@H](Cc2c[nH]c3ccccc23)NC(=O)[C@H](CC(=O)O)NC(=O)[C@H](Cc2ccncc2)NC(=O)[C@H](Cc2ccc(OCC(=O)O)cc2)NC(=O)CSC[C@@H](C(=O)N2CCOC[C@H]2C(=O)NCCCCCCCCCCC(=O)O)NC(=O)[C@H](C(C)O)NC(=O)[C@H](C(C)C)NC(=O)[C@H](CC2CCCCC2)NC(=O)[C@H](CCN)NC(=O)[C@@H](CC(C)C)NC(=O)[C@H](C)N(C)C(=O)[C@H](C(C)C)NC(=O)[C@H](Cc2ccc(-c3ccccc3)cc2)NC1=O (stereo partly drawn) [Example 1222] ({CH2CO}-Y(Carboxymethyl)[4Pal]DWL[Bip]V[NMeA][dL][Dab][Cha]V[Thr(3ξ)]C[Morpholine(3S-CO)][Aun]-OH; thioether N-14)	591 nM
CC(C)C[C@H]1NC(=O)[C@H](C)N(C)C(=O)[C@H](Cc2ccc(OCC(=O)O)cc2)NC(=O)[C@H](Cc2ccc(-c3ccccc3)cc2)NC(=O)[C@H](Cc2ccc(OCC(=O)O)cc2)NC(=O)[C@H](Cc2c[nH]c3ccccc23)NC(=O)[C@H](CC(=O)O)NC(=O)[C@H](Cc2ccc(OCC(=O)O)cc2)NC(=O)[C@H]([C@@H](C)O)NC(=O)CSC[C@@H](C(=O)N[C@@H](CCN)C(=O)NCCOCCOCC(=O)NCCCCCCCCCCC(=O)O)NC(=O)[C@H](CO)NC(=O)[C@H](C(C)C)NC(=O)[C@H](CC2CCCCC2)NC(=O)[C@H](CCC(=O)O)NC1=O [Example 1399] ({CH2CO}-TY(Carboxymethyl)DWY(Carboxymethyl)[Bip]Y(Carboxymethyl)[NMeA][dL]E[Cha]VSC[Dab][AEEA][Aun]-OH; thioether N-14)	68.8 nM

Continued, values first:

IC50	SMILES
27.4 nM	Cc1cccc(C[C@@H]2NC(=O)[C@H](CC(=O)O)NC(=O)[C@H](Cc3ccc(C(=O)O)cc3)NC(=O)[C@H](Cc3ccc(OCC(=O)O)cc3)NC(=O)CSC[C@@H](C(=O)NCCOCCOCC(=O)NCCCCCCCCCCC(=O)O)NC(=O)[C@H](CCCNC(N)=O)NC(=O)[C@H](C(C)C)NC(=O)[C@H](CC3CCCCC3)NC(=O)[C@H](CCN)NC(=O)[C@@H](CC(C)C)NC(=O)[C@H](C)N(C)C(=O)[C@H](C(C)C)NC(=O)[C@H](Cc3ccc(-c4ccccc4)cc3)NC(=O)[C@H](CC(C)C)NC2=O)c1 [Example 2286] ({CH2CO}-Y(Carboxymethyl)[Phe(4-COOH)]D[Phe(3-Me)]L[Bip]V[NMeA][dL][Dab][Cha]V[Cit]C[AEEA][Aun]-OH; thioether N-14)
14.6 nM	CC(=O)NCCCC[C@@H]1NC(=O)[C@H](Cc2ccc(-c3ccccc3)cc2)NC(=O)[C@H](Cc2ccc(O)cc2)NC(=O)[C@H](Cc2cccc(C)c2)NC(=O)[C@H](CC(=O)O)NC(=O)[C@H](Cc2ccc(OCC(=O)O)cc2)NC(=O)[C@H](CCN)NC(=O)CSC[C@@H](C(=O)N[C@@H](CCN)C(=O)NCCCCCCCCCCC(=O)O)NC(=O)[C@H](C(C)O)NC(=O)[C@H](C(C)C)NC(=O)[C@H](CC2CCCCC2)NC(=O)[C@H](CCN)NC(=O)[C@@H](CC(C)C)NC(=O)[C@H](C)N(C)C1=O (stereo partly drawn) [Example 2421] ({CH2CO}-[Dab]Y(Carboxymethyl)D[Phe(3-Me)]Y[Bip]K(Ac)[NMeA][dL][Dab][Cha]V[Thr(3ξ)]C[Dab][Aun]-OH; thioether N-14)
14.6 nM	Cc1cccc(C[C@@H]2NC(=O)[C@H](CC(=O)O)NC(=O)[C@H](Cc3ccc(OCC(=O)O)cc3)NC(=O)[C@H](C(C)O)NC(=O)CSC[C@@H](C(=O)N[C@@H](CCN)C(=O)NCCOCCOCC(=O)NCCCCCCCCCCC(=O)O)NC(=O)[C@H](CCC(=O)O)NC(=O)[C@H](C(C)C)NC(=O)[C@H](CC3CCCCC3)NC(=O)[C@H](CCN)NC(=O)[C@@H](CC(C)C)NC(=O)[C@H](C)N(C)C(=O)[C@H](Cc3ccc(OCC(=O)O)cc3)NC(=O)[C@H](Cc3ccc(-c4ccccc4)cc3)NC(=O)[C@H](Cc3ccc(C(=O)O)cc3)NC2=O)c1 (stereo partly drawn) [Example 2481] ({CH2CO}-[Thr(3ξ)]Y(Carboxymethyl)D[Phe(3-Me)][Phe(4-COOH)][Bip]Y(Carboxymethyl)[NMeA][dL][Dab][Cha]VEC[Dab][AEEA][Aun]-OH; thioether N-14)

Same assay, conditions: PE-labeled PD-L1-Ig 20 nM final, Jurkat-hPD-1 cells; read-out: Jurkat HPD1 PDL1 IC50

IC50	SMILES
30 nM	CC(C)C[C@@H]1NC(=O)[C@H](Cc2c[nH]c3ccccc23)NC(=O)[C@H](CC(=O)O)NC(=O)[C@H](Cc2ccc(OCC(=O)O)cc2)NC(=O)[C@H](Cc2ccc(OCC(=O)O)cc2)NC(=O)CSC[C@@H](C(=O)N[C@@H](CCN)C(=O)NCCOCCOCC(=O)NCCOCCOCC(=O)NCCCCCCCCCCC(=O)O)NC(=O)[C@H](CCC(=O)O)NC(=O)[C@H](C(C)(C)O)NC(=O)[C@H](CC2CCCCC2)NC(=O)[C@H](CCN)NC(=O)[C@@H](CC(C)C)NC(=O)[C@H](C)N(C)C(=O)[C@H](CCC(N)=O)NC(=O)[C@H](Cc2ccc(-c3ccccc3)cc2)NC1=O [Example 2517] ({CH2CO}-Y(Carboxymethyl)Y(Carboxymethyl)DWL[Bip]Q[NMeA][dL][Dab][Cha][Val(3-OH)]EC[Dab][AEEA][AEEA][Aun]-OH; thioether N-14)
16.8 nM	CC(=O)NCCCC[C@@H]1NC(=O)[C@H](C(C)(C)O)NC(=O)[C@H](CC2CCCCC2)NC(=O)[C@H](CCN)NC(=O)[C@@H](CC(C)C)NC(=O)[C@H](C)N(C)C(=O)[C@H](CCCNC(=N)N)NC(=O)[C@H](Cc2ccc(-c3ccccc3)cc2)NC(=O)[C@H](Cc2ccc(C(=O)O)cc2)NC(=O)[C@H](Cc2cccc(C(F)(F)F)c2)NC(=O)[C@H](CC(=O)O)NC(=O)[C@H](Cc2ccc(OCC(=O)O)cc2)NC(=O)[C@H](Cc2ccc(OCC(=O)O)cc2)NC(=O)CSC[C@@H](C(=O)N[C@@H](CCN)C(=O)NCCOCCOCC(=O)NCCCCCCCCCCCCC(=O)O)NC1=O [Example 2639] ({CH2CO}-Y(Carboxymethyl)Y(Carboxymethyl)D[Phe(3-CF3)][Phe(4-COOH)][Bip]R[NMeA][dL][Dab][Cha][Val(3-OH)]K(Ac)C[Dab][AEEA]-{NH(CH2)12COOH}; thioether N-14)
4.8 nM	CC(=O)NCCCC[C@@H]1NC(=O)[C@H](C(C)C)NC(=O)[C@H](CC2CCCCC2)NC(=O)[C@H](CCN)NC(=O)[C@@H](CC(C)C)NC(=O)[C@H](C)N(C)C(=O)[C@H](CCC(N)=O)NC(=O)[C@H](Cc2ccc(-c3ccccc3)cc2)NC(=O)[C@H](Cc2ccc(OCC(=O)O)cc2)NC(=O)[C@H](Cc2cccc(C)c2)NC(=O)[C@H](CC(=O)O)NC(=O)[C@H](Cc2ccc(OCC(=O)O)cc2)NC(=O)[C@H](Cc2ccncc2)NC(=O)CSC[C@@H](C(=O)N[C@@H](CCN)C(=O)NCCOCCOCC(=O)NCCCCCCCCCCC(=O)O)NC1=O [Example 2493] ({CH2CO}-[4Pal]Y(Carboxymethyl)D[Phe(3-Me)]Y(Carboxymethyl)[Bip]Q[NMeA][dL][Dab][Cha]VK(Ac)C[Dab][AEEA][Aun]-OH; thioether N-14)
